Source: article PMC9688225, “α-Lipoic Acid Derivatives as Allosteric Modulators for Targeting AMPA-Type Glutamate Receptors’ Gating Modules” (Cells, 2022)
Read-outs that look alike come from different tables or passages of the source.

Assays:
Format in all cases: cell-based
[1] = target: T1, GluA2/3 AMPA receptor subunits (flip isoform) (Homo sapiens, UniProt P42262+P42263); assay: Whole-cell patch-clamp electrophysiology, heteromeric GluA2/3 expressed in HEK293 cells; conditions: for Amplitude (glutamate + compound): 10 mM glutamate + 12 µM compound, −60 mV, pH 7.4, 22 °C, mean ± SEM; for Amplitude (glutamate + compound) / A/AI (current with glutamate alone / current with glutamate + compound): n = 10; for A/AI (current with glutamate alone / current with glutamate + compound): 10 mM glutamate, 12 µM compound; for IC50: Hill fit; for t deact (weighted deactivation time constant) / t des (weighted desensitization time constant): glutamate + 12 µM compound; for t deact (weighted deactivation time constant): glutamate alone 2.4±0.3 ms; for t des (weighted desensitization time constant): glutamate alone 2.7±0.3 ms
T1 construct: expressed in transfected cells; host or cells: HEK293
Method: (§1) Up to 20 μg of high-copy plasmid DNA was prepared using the QIAGEN Plasmid Mini Kit, the tubes were then centrifuged to extract the supernatant containing the plasmid DNA, ethanol was used to wash the DNA pellet, then centrifuged again and the supernatant was carefully removed as to not disturb the pellet, finally, the pellet was air-dried, and the DNA was re-dissolved in a suitable volume of buffer, (our prior study detailed the whole DNA preparation data). The flip isoform was used in all AMPAR subunits used in this investigation. AMPAR subunits were subcloned in pRK and expressed in the human embryonic kidney cells (HEK293) (The HEK293 cell line was obtained from Sigma, Schnelldorf, Germany). IPA (Integrated Patch Amplifier) recorded HEK293 cells 36–48 h after transfection using the patch-clamp method (Sutter Instruments, Novato, CA, USA). A high-speed piezo solution switcher was installed on a double-barreled glass (theta tube) to provide solutions fast, isolate receptor responses from any network influences, and preserve, as much as possible, the postsynaptic protein machinery. Thus, inhibition was measured by comparing the current recorded when glutamate alone was administered to the current observed when glutamate plus the compound of interest was delivered to the same cell. Before administering the α-LA compounds, experiments were conducted to determine the appropriate concentration to be delivered to the cells without harming them. Dichloromethane (12 µM) effect on GluA1 and GluA2 subunits was tested to ensure that it had no effect on AMPA receptor currents (Figure S8). The effect of α-LA compounds on AMPA subunits plateaued at a concentration of 12 µM because LA inhibits AMPA receptors at low concentrations and continues to inhibit them when LA concentrations are increased by 2 µM each interval, as shown in Figure S1. The concentration increased by 2 µM each time to ensure that no cells were harmed. The cells were washed for 20 s between α-LA derivatives (12 µM), and 10 mM glutamate was supplied alone after each α-LA compound to ensure cell health. Data analysis was carried out using Igor Pro7 (Wave Metrics, inc). For both desensitization (τw des) and deactivation rates (τw deact), an exponential fit to the current decline was obtained at 95% of peak to baseline current. The weighted tau (τw) was calculated as τw = (τf × af) + (τs × as), where af and as are the amplitudes of the fast (τf) and slow (τs) exponential components, respectively. Our study detailed the experimental data set.
(§2) Data are presented as mean ± standard error of the mean (SEM). The number of samples (n = 10) refers to the total number of tested HEK293 cells. Statistical differences between the groups and the wild type were examined by One Way Analysis of Variance (ANOVA), with values of p < 0.05 being considered to indicate statistical significance: (*) p < 0.05, (**) p < 0.01, (***) p < 0.001, ns, not significant. Concentration-response relationships were fitted as composite curves using GraphPad Prism version 6.01 (GraphPad Software, San Diego, CA, USA) to the Hill equation. All results were representative of at least three independent experiments.
(§3) Figure 2 Suppression of AMPA receptor currents by α-LA compounds. Graphs (a,c,e,g) present AMPA receptor currents (pA) before and after the administration of α-LA derivatives on GluA1, GluA1/2, GluA2, and GluA2/3 subunits. While (b,d,f,h) present the ratio A/AI, where A represents the current caused by 10 mM glutamate alone and AI represents the current induced by glutamate + α-LA (12 µM). The whole-cell current was measured at −60 mV, pH 7.4, and 22 °C. A one way analysis of variance (ANOVA) was performed for comparison: *** p < 0.001; ns, not significant. Ten cells were investigated for each LA compound. All values are shown as mean SEM.
(§4) Figure 3 The potency of LA compounds against AMPA receptor subunits. […]

[2] = target: T2, GluA1/2 AMPA receptor subunits (flip isoform) (Homo sapiens, UniProt P42261+P42262); assay: Whole-cell patch-clamp electrophysiology, heteromeric GluA1/2 expressed in HEK293 cells; conditions: for Amplitude (glutamate + compound): 10 mM glutamate + 12 µM compound, −60 mV, pH 7.4, 22 °C, mean ± SEM; for Amplitude (glutamate + compound) / A/AI (current with glutamate alone / current with glutamate + compound): n = 10; for A/AI (current with glutamate alone / current with glutamate + compound): 10 mM glutamate, 12 µM compound; for IC50: Hill fit; for t deact (weighted deactivation time constant) / t des (weighted desensitization time constant): glutamate + 12 µM compound; for t deact (weighted deactivation time constant): glutamate alone 2.5±0.3 ms; for t des (weighted desensitization time constant): glutamate alone 5.3±0.4 ms
T2 construct: expressed in transfected cells; host or cells: HEK293
Method: as §1, §2, §3, §4

[3] = target: T3, GluA2 AMPA receptor subunit (flip isoform) (Homo sapiens, UniProt P42262); assay: Whole-cell patch-clamp electrophysiology, homomeric GluA2 expressed in HEK293 cells; conditions: for Amplitude (glutamate + compound): 10 mM glutamate + 12 µM compound, −60 mV, pH 7.4, 22 °C, mean ± SEM; for Amplitude (glutamate + compound) / A/AI (current with glutamate alone / current with glutamate + compound): n = 10; for A/AI (current with glutamate alone / current with glutamate + compound): 10 mM glutamate, 12 µM compound; for IC50: Hill fit; for t deact (weighted deactivation time constant) / t des (weighted desensitization time constant): glutamate + 12 µM compound; for t deact (weighted deactivation time constant): glutamate alone 2.4±0.1 ms; for t des (weighted desensitization time constant): glutamate alone 2.6±0.1 ms
T3 construct: expressed in transfected cells; host or cells: HEK293
Method: as §1, §2, §3, §4

[4] = target: T4, GluA1 AMPA receptor subunit (flip isoform) (Homo sapiens, UniProt P42261); assay: Whole-cell patch-clamp electrophysiology, homomeric GluA1 expressed in HEK293 cells; conditions: for Amplitude (glutamate + compound): 10 mM glutamate + 12 µM compound, −60 mV, pH 7.4, 22 °C, mean ± SEM; for Amplitude (glutamate + compound) / A/AI (current with glutamate alone / current with glutamate + compound): n = 10; for A/AI (current with glutamate alone / current with glutamate + compound): 10 mM glutamate, 12 µM compound; for IC50: Hill fit; for t deact (weighted deactivation time constant) / t des (weighted desensitization time constant): glutamate + 12 µM compound; for t deact (weighted deactivation time constant): glutamate alone 2.2±0.1 ms; for t des (weighted desensitization time constant): glutamate alone 2.3±0.1 ms
T4 construct: expressed in transfected cells; host or cells: HEK293
Method: as §1, §2, §3, §4

[5] = system: AMPA receptor subunits (GluA1, GluA2, GluA1/2, GluA2/3); assay: Whole-cell patch-clamp electrophysiology, summary over the AMPA receptor subunits in HEK293 cells; conditions: for decrease in the peak current of the AMPARs / increase of the rate of AMPA receptor deactivation (τw deact) / reduction in the rate of desensitization (τw des): all AMPA receptor subunits, 12 µM compound; for IC50: over GluA1, GluA1/2, GluA2, GluA2/3, read-out: approximate IC50 against AMPA receptor subunits
Method: as §1, §2
The levels of inhibition of α-LA and its derivatives attracted our attention to assessing the potency of the compounds in a concentration-dependent manner. […] The concentration−inhibition curves were produced by administering glutamate alone at a concentration of 10 mM, followed by glutamate + α-LA derivatives at varying concentrations (in μM) for every recording point. Afterward, the cells were normalized back by administering glutamate alone. Since the glutamate concentration in the synaptic cleft constantly saturates the receptors, driving the response to a near maximum level, variability occurs because the maximum level changes. […]

[6] = whole-cell normalized peak amplitude, unit printed in the text, not in Table S6, read-out: IC50

T1 sequence (P42262 25-883 isoform P42262-2 limits assumed): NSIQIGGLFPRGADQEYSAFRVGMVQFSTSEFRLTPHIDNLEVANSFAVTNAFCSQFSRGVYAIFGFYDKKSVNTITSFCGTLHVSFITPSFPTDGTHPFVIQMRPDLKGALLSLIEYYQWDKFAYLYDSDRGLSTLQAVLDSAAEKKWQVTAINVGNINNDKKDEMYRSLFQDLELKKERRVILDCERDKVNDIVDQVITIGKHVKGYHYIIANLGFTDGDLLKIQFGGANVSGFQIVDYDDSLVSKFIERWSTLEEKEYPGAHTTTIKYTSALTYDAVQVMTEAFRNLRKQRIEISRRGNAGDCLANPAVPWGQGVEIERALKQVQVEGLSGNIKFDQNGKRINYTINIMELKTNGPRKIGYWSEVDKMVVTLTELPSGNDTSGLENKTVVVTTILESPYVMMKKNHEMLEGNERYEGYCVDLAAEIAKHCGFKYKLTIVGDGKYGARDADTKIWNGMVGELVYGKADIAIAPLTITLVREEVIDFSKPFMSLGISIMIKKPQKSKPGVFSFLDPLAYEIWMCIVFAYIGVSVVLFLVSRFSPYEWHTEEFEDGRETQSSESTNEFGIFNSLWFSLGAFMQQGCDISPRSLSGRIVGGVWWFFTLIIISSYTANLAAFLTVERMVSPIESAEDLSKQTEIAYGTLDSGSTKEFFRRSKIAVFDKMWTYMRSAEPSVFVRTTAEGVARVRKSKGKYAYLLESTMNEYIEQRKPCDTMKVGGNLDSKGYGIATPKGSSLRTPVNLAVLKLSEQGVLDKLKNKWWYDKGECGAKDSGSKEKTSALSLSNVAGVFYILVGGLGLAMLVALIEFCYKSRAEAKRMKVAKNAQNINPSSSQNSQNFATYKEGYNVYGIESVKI
T1 sequence (P42263 29-894 isoform P42263-2 limits assumed): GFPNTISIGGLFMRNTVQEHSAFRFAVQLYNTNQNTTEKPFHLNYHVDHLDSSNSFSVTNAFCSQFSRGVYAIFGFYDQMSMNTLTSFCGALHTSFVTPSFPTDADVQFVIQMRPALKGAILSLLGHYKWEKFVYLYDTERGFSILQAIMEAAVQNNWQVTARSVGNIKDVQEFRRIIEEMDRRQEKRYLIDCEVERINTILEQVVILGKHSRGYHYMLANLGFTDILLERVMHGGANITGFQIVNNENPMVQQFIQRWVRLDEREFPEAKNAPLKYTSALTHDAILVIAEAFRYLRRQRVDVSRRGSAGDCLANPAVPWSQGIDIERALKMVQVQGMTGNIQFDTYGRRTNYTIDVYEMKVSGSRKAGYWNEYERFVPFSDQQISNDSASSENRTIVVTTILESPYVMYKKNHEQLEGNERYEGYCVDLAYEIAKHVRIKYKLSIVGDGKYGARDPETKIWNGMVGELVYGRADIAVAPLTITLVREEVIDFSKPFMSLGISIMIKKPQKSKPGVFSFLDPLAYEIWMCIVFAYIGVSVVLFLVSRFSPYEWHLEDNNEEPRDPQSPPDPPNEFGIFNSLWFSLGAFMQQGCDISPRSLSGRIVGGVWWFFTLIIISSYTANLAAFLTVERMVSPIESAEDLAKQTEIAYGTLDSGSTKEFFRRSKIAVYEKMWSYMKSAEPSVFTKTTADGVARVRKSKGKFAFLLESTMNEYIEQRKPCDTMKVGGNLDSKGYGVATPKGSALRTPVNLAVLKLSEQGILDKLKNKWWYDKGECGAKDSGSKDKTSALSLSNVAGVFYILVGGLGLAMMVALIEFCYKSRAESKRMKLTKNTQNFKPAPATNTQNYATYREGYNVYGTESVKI
T3 sequence (P42262 25-883 isoform P42262-2 limits assumed): as the sequence (P42262 25-883 isoform P42262-2 limits assumed) above
T2 sequence (P42261 19-906 isoform P42261-2 limits assumed): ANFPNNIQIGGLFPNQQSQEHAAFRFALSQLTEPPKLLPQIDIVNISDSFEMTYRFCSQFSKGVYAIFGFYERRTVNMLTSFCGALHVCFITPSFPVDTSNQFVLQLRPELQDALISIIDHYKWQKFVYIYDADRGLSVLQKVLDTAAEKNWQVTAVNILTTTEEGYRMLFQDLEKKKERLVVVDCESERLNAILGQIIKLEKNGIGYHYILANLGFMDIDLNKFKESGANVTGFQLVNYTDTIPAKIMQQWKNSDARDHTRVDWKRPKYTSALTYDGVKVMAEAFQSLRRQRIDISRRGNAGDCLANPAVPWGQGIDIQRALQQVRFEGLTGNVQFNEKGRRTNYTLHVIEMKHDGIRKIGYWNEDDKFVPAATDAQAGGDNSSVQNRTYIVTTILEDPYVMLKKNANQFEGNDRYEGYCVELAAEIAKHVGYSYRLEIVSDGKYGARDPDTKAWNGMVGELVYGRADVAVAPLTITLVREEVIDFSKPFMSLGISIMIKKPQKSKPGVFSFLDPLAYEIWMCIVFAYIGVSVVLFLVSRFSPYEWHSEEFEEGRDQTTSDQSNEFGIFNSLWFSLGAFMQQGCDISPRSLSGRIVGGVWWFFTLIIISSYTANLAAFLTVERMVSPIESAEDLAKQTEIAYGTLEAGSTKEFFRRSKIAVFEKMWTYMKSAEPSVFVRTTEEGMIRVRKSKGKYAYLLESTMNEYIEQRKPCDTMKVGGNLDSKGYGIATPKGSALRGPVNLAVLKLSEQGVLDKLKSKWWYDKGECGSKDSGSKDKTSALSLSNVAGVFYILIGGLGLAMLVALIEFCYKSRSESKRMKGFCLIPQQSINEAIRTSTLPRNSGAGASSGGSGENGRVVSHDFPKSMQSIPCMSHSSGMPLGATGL
T2 sequence (P42262 25-883 isoform P42262-2 limits assumed): as the sequence (P42262 25-883 isoform P42262-2 limits assumed) above
T4 sequence (P42261 19-906 isoform P42261-2 limits assumed): as the sequence (P42261 19-906 isoform P42261-2 limits assumed) above

| SMILES | Amplitude (glutamate + compound) [1] [pA] | A/AI (current with glutamate alone / current with glutamate + compound) [1] | IC50 ([1]; read-out: Log IC50 (converted)) [µM] | t deact (weighted deactivation time constant) [1] [ms] | t des (weighted desensitization time constant) [1] [ms] | IC50 [1, 6] [µM] | Amplitude (glutamate + compound) [2] [pA] | A/AI (current with glutamate alone / current with glutamate + compound) [2] | IC50 ([2]; read-out: Log IC50 (converted)) [µM] | t deact (weighted deactivation time constant) [2] [ms] | t des (weighted desensitization time constant) [2] [ms] | IC50 [2, 6] [µM] | Amplitude (glutamate + compound) [3] [pA] | A/AI (current with glutamate alone / current with glutamate + compound) [3] | IC50 ([3]; read-out: Log IC50 (converted)) [µM] | t deact (weighted deactivation time constant) [3] [ms] | t des (weighted desensitization time constant) [3] [ms] | IC50 [3, 6] [µM] | Amplitude (glutamate + compound) [4] [pA] | A/AI (current with glutamate alone / current with glutamate + compound) [4] | further results |
| --- | --- | --- | --- | --- | --- | --- | --- | --- | --- | --- | --- | --- | --- | --- | --- | --- | --- | --- | --- | --- | --- |
| O=C(CCCCC1CCSS1)OCCCO (stereo not shown) [LA1, 1-Hydroxy-3-Lipo Ester] | 52±8.0 | 10.14±1.0 | 3.8 | 10.1 ± 0.6 | 1.2 ± 0.09 | 3.8 | 60±9.0 | 10.32±1.0 | 3.55 | 10.1 ± 0.7 | 2.8 ± 0.3 | 3.54 | 124±19.0 | 10.22±0.8 | 3.63 | 10.4 ± 0.9 | 1.0 ± 0.06 | 3.63 | 89±12.0 | 10.43±0.7 | IC50 ([4]; read-out: Log IC50 (converted)): 3.47 µM; t deact (weighted deactivation time constant) [4]: 9.5 ± 0.5 ms; t des (weighted desensitization time constant) [4]: 0.8 ± 0.1 ms; IC50 [4, 6]: 3.47 µM; decrease in the peak current of the AMPARs [5]: about 10 fold; increase of the rate of AMPA receptor deactivation (τw deact) [5]: about 4 fold; reduction in the rate of desensitization (τw des) [5]: 3–4 fold; IC50 [5]: 3.5 to 3.8 µM |
| O=C(CCCCC1CCSS1)OCCCO[N+](=O)[O-] (stereo not shown) [LA2, 1-Nitrooxy–propane-3-lipoyl ester] | 46±7.0 | 11.03±1.0 | 3.63 | 10.8 ± 0.9 | 0.9 ± 0.09 | 3.61 | 57±8.0 | 11.34±0.9 | 3.39 | 11.1 ± 0.9 | 2.7 ± 0.2 | 3.41 | 112±17.0 | 11.16±0.7 | 3.55 | 10.9 ± 0.7 | 0.8 ± 0.08 | 3.51 | 79±11.0 | 11.53±0.8 | IC50 ([4]; read-out: Log IC50 (converted)): 3.39 µM; t deact (weighted deactivation time constant) [4]: 11.6 ± 0.7 ms; t des (weighted desensitization time constant) [4]: 0.6 ± 0.1 ms; IC50 [4, 6]: 3.35 µM; decrease in the peak current of the AMPARs [5]: ~11 fold; increase of the rate of AMPA receptor deactivation (τw deact) [5]: approximately 5 fold; reduction in the rate of desensitization (τw des) [5]: 3–4 fold; IC50 [5]: ~3.5 µM |
| O=C(CCCCC1CCSS1)OCCCCCCO[N+](=O)[O-] (stereo not shown) [LA3, 1-Nitrooxy–Hexane-6-lipoyl ester] | 71±14.0 | 7.84±0.9 | 4.47 | 7.6 ± 0.7 | 1.9 ± 0.1 | 4.46 | 81±12.0 | 8.05±0.8 | 4.37 | 7.9 ± 0.67 | 3.6 ± 0.2 | 4.33 | 155±25 | 7.91±0.7 | 4.37 | 7.7 ± 0.3 | 1.8 ± 0.04 | 4.37 | 114±12.0 | 8.13±0.6 | IC50 ([4]; read-out: Log IC50 (converted)): 3.63 µM; t deact (weighted deactivation time constant) [4]: 8.1 ± 0.4 ms; t des (weighted desensitization time constant) [4]: 1.7 ± 0.1 ms; IC50 [4, 6]: 3.59 µM; decrease in the peak current of the AMPARs [5]: roughly 8 fold; increase of the rate of AMPA receptor deactivation (τw deact) [5]: roughly 3 fold |
